Biological target: T1, ACE, rat kidney preparations (Rattus norvegicus, UniProt P47820)
T1 construct: either compound- or vehicle-dosed rat kidney preparations; from tissue; host or cells: kidney of male Sprague-Dawley rats
T1 sequence (P47820 36-1313): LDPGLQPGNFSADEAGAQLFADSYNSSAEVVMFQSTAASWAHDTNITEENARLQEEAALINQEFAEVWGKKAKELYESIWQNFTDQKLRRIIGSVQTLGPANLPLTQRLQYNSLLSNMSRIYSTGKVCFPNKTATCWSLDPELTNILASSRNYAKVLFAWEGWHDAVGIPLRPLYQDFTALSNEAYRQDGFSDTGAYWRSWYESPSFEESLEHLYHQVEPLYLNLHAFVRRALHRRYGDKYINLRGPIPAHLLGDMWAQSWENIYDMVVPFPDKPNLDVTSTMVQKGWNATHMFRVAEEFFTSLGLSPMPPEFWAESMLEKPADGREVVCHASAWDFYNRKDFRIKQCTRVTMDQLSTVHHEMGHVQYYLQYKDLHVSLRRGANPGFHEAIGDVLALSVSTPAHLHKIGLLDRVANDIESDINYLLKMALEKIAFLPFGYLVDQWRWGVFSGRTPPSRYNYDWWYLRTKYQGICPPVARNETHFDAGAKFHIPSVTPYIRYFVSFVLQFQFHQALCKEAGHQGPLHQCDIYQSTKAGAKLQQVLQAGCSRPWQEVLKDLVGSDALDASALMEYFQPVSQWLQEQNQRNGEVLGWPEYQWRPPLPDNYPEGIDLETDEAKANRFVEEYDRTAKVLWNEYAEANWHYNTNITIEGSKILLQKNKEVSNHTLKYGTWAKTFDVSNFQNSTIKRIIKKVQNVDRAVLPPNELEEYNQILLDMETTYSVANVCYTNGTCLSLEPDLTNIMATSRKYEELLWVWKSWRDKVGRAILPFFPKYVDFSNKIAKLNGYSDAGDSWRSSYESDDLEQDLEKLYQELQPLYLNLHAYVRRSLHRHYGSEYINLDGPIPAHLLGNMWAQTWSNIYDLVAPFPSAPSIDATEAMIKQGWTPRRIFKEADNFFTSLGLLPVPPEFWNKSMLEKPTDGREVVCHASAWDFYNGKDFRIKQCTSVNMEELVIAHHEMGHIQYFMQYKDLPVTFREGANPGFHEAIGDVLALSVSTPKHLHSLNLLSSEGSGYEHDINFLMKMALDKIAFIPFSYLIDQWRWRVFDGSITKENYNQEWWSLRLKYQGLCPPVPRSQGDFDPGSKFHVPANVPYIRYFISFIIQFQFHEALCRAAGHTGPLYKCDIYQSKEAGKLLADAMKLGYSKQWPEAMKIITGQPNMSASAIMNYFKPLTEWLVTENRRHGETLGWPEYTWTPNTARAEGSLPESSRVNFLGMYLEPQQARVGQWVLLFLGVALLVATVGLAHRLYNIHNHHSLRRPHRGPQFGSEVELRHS
Test: Radiometric ACE assay with tritiated hippuryl-glycyl-glycine, rat kidney preparations
Type: biochemical
Settings: 1 μM enalaprilat; compound- or vehicle-dosed rat kidney preparations

inhibition of radioactive product formation: Complete inhibition
SMILES: C[C@H](N[C@@H](CCc1ccccc1)C(=O)O)C(=O)N1CCC[C@H]1C(=O)O [enalaprilat]

— patent US5629309A, “2-substituted indane-2-mercaptoacetylamide disulfide derivatives useful as inhibitors of enkephalinase and ACE” (Merrell Pharmaceuticals Inc., priority 1995, dated 1997)
